Test results as given in patent US8361995B2, “Drug comprising at least one gestagen” (Richter Gedeon Nyrt., priority 2007, dated 2013).

Experiments:
human melanocytes = experiment: proliferation of human melanocytes cultured with hormones (cell counting, proliferation and apoptosis tests); format: cell-based; conditions: analysed after 9 days
Description: In a series of experiments, the influence of chlormadinone acetate (CMA) on the proliferation or pigment formation of human melanocytes was examined. To this end, human melanocytes were cultured in each case in the corresponding culture medium, which in each case contained different quantities of ethinyl oestradiol (EO), chlormadinone acetate (CMA) or a combination thereof. The individual compositions are summarised below in Table 1. [table] After 9 days the human melanocytes were analysed in vitro. Cell growth and cell death were determined by cell counting by means of Typan blue staining and by commercial cell proliferation and apoptosis tests. Pigment formation was determined both by measuring the melanin concentration of the cells and by measuring tyrosinase, the key enzyme in pigment formation.

tyrosinase = experiment: pigment formation of human melanocytes: tyrosinase activity; format: cell-based; conditions: 1 nM as the sole hormone in the culture medium; analysed after 9 days
Description: In a series of experiments, the influence of chlormadinone acetate (CMA) on the proliferation or pigment formation of human melanocytes was examined.
To this end, human melanocytes were cultured in each case in the corresponding culture medium, which in each case contained different quantities of ethinyl oestradiol (EO), chlormadinone acetate (CMA) or a combination thereof. The individual compositions are summarised below in Table 1.
After 9 days the human melanocytes were analysed in vitro. Cell growth and cell death were determined by cell counting by means of Typan blue staining and by commercial cell proliferation and apoptosis tests. Pigment formation was determined both by measuring the melanin concentration of the cells and by measuring tyrosinase, the key enzyme in pigment formation.

| tyrosinase activity of human melanocytes (tyrosinase) | SMILES | reduction of the proliferation rate of human melanocytes (human melanocytes; 100 nM in the culture medium) | proliferation of human melanocytes (human melanocytes; 1 nM as the sole hormone in the culture medium) |
| --- | --- | --- | --- |
|  | CC(=O)O[C@]1(C(C)=O)CC[C@H]2[C@@H]3C=C(Cl)C4=CC(=O)CC[C@]4(C)[C@H]3CC[C@@]21C [chlormadinone acetate] | 50-70% |  |
| increased | C#C[C@]1(O)CC[C@H]2[C@@H]3CCc4cc(O)ccc4[C@H]3CC[C@@]21C [ethinyl oestradiol] |  | increased |
